From patent US10821100B2, “Triazolone compounds as mPGES-1 inhibitors” (Glenmark Pharmaceuticals S.A., priority 2012, dated 2020) come the findings set out here.

For this experiment, the target named is T1, Recombinant human mPGES-1 (Homo sapiens, UniProt O14684).
T1 construct: made in house; host or cells: CHO cells (crude microsomal fractions)
T1 sequence (O14684 1-152): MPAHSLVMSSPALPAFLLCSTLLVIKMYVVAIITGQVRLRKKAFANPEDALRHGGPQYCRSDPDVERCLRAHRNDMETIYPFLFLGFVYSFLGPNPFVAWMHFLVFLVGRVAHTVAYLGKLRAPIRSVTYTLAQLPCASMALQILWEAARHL
In words: In-vitro screening of mPGES-1 inhibitors (inhibition of PGE2 formation from PGH2, HTRF detection). It counts as biochemical. The settings on record: mPGES-1 enzyme; for inhibition at 1 µM: 1 μM test compound, read-out: Percentage inhibition at 1 μM; for inhibition at 1 µM / inhibition at 10 µM: crude microsomal fractions; for inhibition at 10 µM: 10 μM test compound, read-out: Percentage inhibition at 10 μM; for IC50: class symbols. In outline:
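Crude CHO-expressed microsomes (40–60 μg/mL protein) preincubated 10 min with compound in 0.1 M potassium phosphate/2 mM EDTA containing 2.5 mM GSH, 0.5% DMSO final. PGH2 (15 μM) reacted 1 min, stopped with stannous chloride. PGE2 quantified by HTRF, IC50 from nonlinear regression of percent inhibition.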

Bounds are passed on as bounds.

By inhibition is commonly meant the change of the read-out against control, counted positive when it falls. Broadly, the IC50 is the point on the concentration scale where inhibition reaches its midpoint. Consider `CC(C)(C)C(=O)NCc1cnc(C(F)F)c(-c2nn(-c3ccc(C(F)(F)F)cc3)c(=O)[nH]2)c1` [Example-186], for which the inhibition at 1 µM was 96.8%, the inhibition at 10 µM was found to be 98% and the 50% inhibitory concentration (IC50) was under 50 nM.

Turning to `CC(C)C(=O)NCc1cnc(C(F)F)c(-c2nn(-c3ccc(C(F)(F)F)cc3)c(=O)[nH]2)c1` [Example-187, N-((6-(Difluoromethyl)-5-(5-oxo-1-(4-(trifluoromethyl)phenyl)-4,5-dihydro-1H-1,2,4-triazol-3-yl)pyridin-3-yl)methyl)isobutyramide], the inhibition at 1 µM was 98.6%, the inhibition at 10 µM worked out at 97.5% and the half-inhibitory concentration (IC50) was under 50 nM.

On to `CC(C)S(=O)(=O)NCc1cnc(C(F)F)c(-c2nn(-c3ccc(C(F)(F)F)cc3)c(=O)[nH]2)c1` [Example-188, N-((6-(Difluoromethyl)-5-(5-oxo-1-(4-(trifluoromethyl)phenyl)-4,5-dihydro-1H-1,2,4-triazol-3-yl)pyridin-3-yl)methyl)propane-2-sulfonamide], for which the inhibition at 1 µM worked out at 89.5%, the inhibition at 10 µM is 99.3% and the IC50 was in the range of 50 to 100 nM.

Turning to `O=C(NCc1cnc(C(F)F)c(-c2nn(-c3ccc(C(F)(F)F)cc3)c(=O)[nH]2)c1)C1CCC1` [Example-189, N-((6-(Difluoromethyl)-5-(5-oxo-1-(4-(trifluoromethyl)phenyl)-4,5-dihydro-1H-1,2,4-triazol-3-yl)pyridin-3-yl)methyl)cyclobutanecarboxamide], the inhibition at 1 µM is 96.2%, the inhibition at 10 µM was 98.5% and the 50% inhibitory concentration (IC50) was under 50 nM.

Take `O=C(NCc1ccc(Cl)c(-n2nc(-c3ccc(C#CC4CC4)cc3)[nH]c2=O)c1)C(F)(F)F` [Example-190, N-(4-Chloro-3-(3-(4-(cyclopropylethynyl)phenyl)-5-oxo-4,5-dihydro-1H-1,2,4-triazol-1-yl)benzyl)-2,2,2-trifluoroacetamide]: the inhibition at 1 µM was determined as 100%, the inhibition at 10 µM is 100% and the concentration for half-maximal inhibition (IC50) was under 50 nM.

In the case of `CC(C)(CO)C(=O)NCc1ccc(Cl)c(-n2nc(-c3ccc(C#CC4CC4)cc3)[nH]c2=O)c1` [Example-191, N-(4-Chloro-3-(3-(4-(cyclopropylethynyl)phenyl)-5-oxo-4,5-dihydro-1H-1,2,4-triazol-1-yl)benzyl)-3-hydroxy-2,2-dimethylpropanamide], the inhibition at 1 µM came to 93.5%, the inhibition at 10 µM is 100% and the half-maximal inhibitory concentration (IC50) is over 100 nM.

As for `CC(C)(CF)C(=O)NCc1cnc(C(F)F)c(-c2nn(-c3ccc(C(F)(F)F)cc3)c(=O)[nH]2)c1` [Example-192, 3-Fluoro-N-((6-(difluoromethyl)-5-(1-(4-(trifluoromethyl)phenyl)-4,5-dihydro-5-oxo-1H-1,2,4-triazol-3-yl)pyridin-3-yl)methyl)-2,2-dimethylpropanamide], the inhibition at 1 µM stood at 99.3%, the inhibition at 10 µM came out at 99.3% and the IC50 was under 50 nM.
